Inconclusive results and toxic doses are left out. The calls were made as follows: active = survival T/C of 150% or more; inactive = T/C below 125% in these data.
Test system: P388 leukemia ip, CD2F1 mice, survival T/C
Experiment: NCI In Vivo Anticancer Drug Screen. Data for tumor model P388 Leukemia (intraperitoneal) in CD2F1 (CDF1) mice
Conditions: endpoint: median survival time, higher = longer survival
Outline: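 Mice carrying the transplanted tumor received test compound or vehicle. Survival was recorded in each group, and the value is the treated-group measurement divided by that of the vehicle-treated control group.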

[1] = dose: 50.0 mg/kg/injection, schedule: Q01DX005 (ip), vehicle: Klucel (hydroxypropylcellulose) (HPC)
[2] = dose: 100.0 mg/kg/injection, schedule: Q01DX005 (ip), vehicle: Klucel (hydroxypropylcellulose) (HPC)
[3] = dose: 200.0 mg/kg/injection, schedule: Q01DX005 (ip), vehicle: Klucel (hydroxypropylcellulose) (HPC)
[4] = dose: 25.0 mg/kg/injection, schedule: Q01DX009 (ip), vehicle: saline with Tween-80
[5] = dose: 50.0 mg/kg/injection, schedule: Q01DX009 (ip), vehicle: saline with Tween-80

Measured: T/C

CCC(C)C(=O)C(Br)C(Br)c1ccccc1 (centres undefined)
inactive: dose: 50.0 mg/kg/injection, schedule: Q01DX009 (ip), vehicle: Klucel (hydroxypropylcellulose) (HPC) 101 % of control | dose: 100.0 mg/kg/injection, schedule: Q01DX009 (ip), vehicle: Klucel (hydroxypropylcellulose) (HPC) 100 % of control | dose: 200.0 mg/kg/injection, schedule: Q01DX009 (ip), vehicle: Klucel (hydroxypropylcellulose) (HPC) 101 % of control

Cc1cc(O)c(Br)cc1O
inactive: [1] 100 % of control | [2] 97 % of control | [3] 97 % of control

O=C1c2cccc(Cl)c2Cc2c(Cl)cccc21
inactive: dose: 100.0 mg/kg/injection, schedule: Q01DX001 (ip), vehicle: saline with Tween-80 105 % of control | dose: 200.0 mg/kg/injection, schedule: Q01DX001 (ip), vehicle: saline with Tween-80 99 % of control | dose: 400.0 mg/kg/injection, schedule: Q01DX001 (ip), vehicle: saline with Tween-80 92 % of control

CCCCCCCCCCC(N)P(=O)(O)O (centres undefined)
inactive: dose: 12.5 mg/kg/injection, schedule: Q01DX009 (ip), vehicle: saline with Tween-80 104 % of control | [4] 100 % of control | [5] 100 % of control

NC(=S)c1ccc2ccccc2c1
inactive: [1] 100 % of control | [2] 100 % of control | [3] 100 % of control

Cc1cc(O)c(CO)cc1C
inactive: dose: 100.0 mg/kg/injection, schedule: Q04DX002 (ip), vehicle: saline with Tween-80 104 % of control | dose: 200.0 mg/kg/injection, schedule: Q04DX002 (ip), vehicle: saline with Tween-80 110 % of control | dose: 400.0 mg/kg/injection, schedule: Q04DX002 (ip), vehicle: saline with Tween-80 107 % of control

CCN(CC)CCOC(=O)c1c(C)oc2cc3c(C(=O)OCCN(CC)CC)c(C)oc3cc12
inactive: dose: 25.0 mg/kg/injection, schedule: Q01DX005 (ip), vehicle: Klucel (hydroxypropylcellulose) (HPC) 98 % of control | [1] 92 % of control | [2] 94 % of control | [3] 113 % of control

N#C/C(=C\c1ccccc1Cl)C(N)=S
inactive: dose: 50.0 mg/kg/injection, schedule: Q01DX009 (ip), vehicle: saline 100 % of control | dose: 100.0 mg/kg/injection, schedule: Q01DX009 (ip), vehicle: saline 101 % of control | dose: 200.0 mg/kg/injection, schedule: Q01DX009 (ip), vehicle: saline 97 % of control

CCc1ccccc1C1(Br)C(=O)c2ccccc2C1=O
inactive: dose: 100.0 mg/kg/injection, schedule: Q04DX002 (ip), vehicle: saline 102 % of control | dose: 200.0 mg/kg/injection, schedule: Q04DX002 (ip), vehicle: saline 100 % of control | dose: 400.0 mg/kg/injection, schedule: Q04DX002 (ip), vehicle: saline 101 % of control

CONC(=O)Cc1cccc(OC)c1
inactive: [4] 104 % of control | [5] 114 % of control | dose: 100.0 mg/kg/injection, schedule: Q01DX009 (ip), vehicle: saline with Tween-80 98 % of control

CCCCC(CC)C(=O)[O][Sn]([CH2]CCC)([CH2]CCC)[O]C(=O)C(CC)CCCC (centres undefined)
inactive: dose: 1.5 mg/kg/injection, schedule: Q01DX009 (ip), vehicle: saline sonified 104 % of control | dose: 3.0 mg/kg/injection, schedule: Q01DX009 (ip), vehicle: saline sonified 95 % of control | dose: 6.0 mg/kg/injection, schedule: Q01DX009 (ip), vehicle: saline sonified 118 % of control

CC(C)c1[nH]c2ccccc2c1Cn1ccnc1
inactive: [1] 100 % of control | [2] 114 % of control

Cc1ccc(S(=O)(=O)NNC(=O)CCn2[nH]c(=O)c(Cl)c(Cl)c2=O)cc1
inactive: dose: 60.0 mg/kg/injection, schedule: Q01DX005 (ip), vehicle: saline with Tween-80 99 % of control | dose: 120.0 mg/kg/injection, schedule: Q01DX005 (ip), vehicle: saline with Tween-80 103 % of control | dose: 240.0 mg/kg/injection, schedule: Q01DX005 (ip), vehicle: saline with Tween-80 98 % of control

From PubChem BioAssay AID330 (DTP/NCI, 2004)
